From patent publication US20050059610A1 (priority 2003, published 2005)
Entries after “also recorded” stand apart in the source; their conditions may differ. Read-outs that look alike come from different tables or passages of the source.

What was measured:
[1] = system: myocardial tissue metabolism; assay: Rat working heart model, myocardial tissue metabolism by 1H-/31P-MRS; type: in vivo
Procedure: The tissue was analyzed for ATP, ADP, and ATP/ADP ratio via ^31P-magnetic resonance spectroscopy (MRS) and for creatine/phosphocreatine content via ^1H-magnetic resonance spectroscopy (MRS). […] The tissue was analyzed for lactate content via ^1H-MRS. […] Glutamine pretreatment enhances myocardial tissue content (glutamine, glutamate, and glucose) content following myocardial I/R injury in the rat. […] Glutamate is a vital tissue substrate following myocardial injury and it is beneficial that a single dose of […]/R injury can preserve tissue levels of this key substrate following injury. […] This key finding confirms that it is possible to enhance myocardial tissue substrate content (particularly glutamate) with a (pre-operative) remote GLN pre-treatment dose. […] Substrates were analyzed via ^1H-MRS. […] The tissue was analyzed for myocardial tissue reduced glutathione content via ^1H-magnetic resonance spectroscopy (MRS). […] Glutamine pretreatment preserves myocardial NAD (+)/NADH content following myocardial I/R injury in the rat. […] The tissue was analyzed for NAD (+)/NADH content via ^31P-magnetic resonance spectroscopy (MRS). […] NAD(+)/NADH was analyzed via […]. (**-p<0.01 versus pre-ischemic values, ##-p<0.01 versus post-ischemic LR control tissue via ANOVA.)

[2] = system: critically ill humans; details: cited from earlier work; for tolerability of the maximum dose previously administered in humans: even in critically ill patients
[3] = system: peripheral blood mononuclear cells; assay: Glutamine-treated peripheral blood mononuclear cells; type: cell-based
[4] = system: polymicrobial sepsis (CLP); assay: Cecal ligation and puncture (CLP): lung and heart tissue metabolism by MRS, survival; type: in vivo, Sprague-Dawley rats
Procedure: Survival was monitored for five days. In a separate group of animals (n=4/group), lung and heart tissue was harvested 24 hours post-CLP and tissue metabolism was analyzed by ^1H-MRS and ^31P-MRS.

[5] = system: critically ill patients; assay: Clinical outcomes in critically ill patients, glutamine vs control; type: in vivo, human
[6] = non-pancreatic diagnoses, n = 7

**Q.** With `NC(=O)CC[C@H](N)C(=O)O` [GLN, Glutamine] as the compound, how does the “total ATP content following I/R injury” value ([1]; 0.52 g/kg GLN 18 hours prior, vs control) read?
**A.** The value was “improved”.

**Q.** And the “accumulation of myocardial lactate following I/R injury” value ([1]; GLN 18 hours prior)?
**A.** Its value is “significant decrease; also recorded: decreased”.

**Q.** And the “myocardial tissue content of glutamine and glucose following I/R injury versus LR control” value ([1]; GLN 18 hours prior, 1H-MRS)?
**A.** Its value is “enhanced”.

**Q.** And the “myocardial tissue creatine/phosphocreatine content following I/R injury” value ([1]; GLN 18 hours prior, 1H-MRS)?
**A.** The value was “enhanced”.

**Q.** And the “myocardial tissue reduced glutathione content following I/R injury” value ([1]; GLN 18 hours prior, 1H-MRS)?
**A.** The value was “marked enhancement; also recorded: improved”.

**Q.** And the “post-ischemic glutamate levels versus pre-ischemic levels” value ([1]; GLN 18 hours prior, 1H-MRS)?
**A.** Its value is “no decrease”.

**Q.** What about the “myocardial NAD(+)/NADH content following I/R injury” value ([1]; GLN 18 hours prior, MRS) of the same compound?
**A.** The value was “significant preservation; also recorded: improved”.

**Q.** What about the “reduction of the increase in tissue lactate versus control animals” value ([1]; GLN 18 hours prior, post I/R, 1H-MRS) of the same compound?
**A.** Its value is > 55%.

**Q.** And the “tolerability of the maximum dose previously administered in humans” value [2]?
**A.** Its value is “without adverse side effects”.

**Q.** And the “tolerability of the maximum dose previously administered in humans” value ([2]; listed as L-Glutamine)?
**A.** Its value is “tolerated well without adverse side effects”.

**Q.** And the “toxicity in critically ill humans” value ([2]; variety of clinical settings)?
**A.** The value was “without any evidence of toxicity”.

**Q.** And the “heat shock protein expression” value [3]?
**A.** The value was “increase”.

**Q.** And the tumor-necrosis alpha release [3]?
**A.** The tumor-necrosis alpha release was “significant attenuation”.

**Q.** And the “fall in lung tissue Creatine/phosphocreatine” value ([4]; 24 hours post-CLP)?
**A.** Its value is “significantly attenuated”.

**Q.** What about the “fall in lung tissue glucose” value ([4]; 24 hours post-CLP) of the same compound?
**A.** The value was “significantly attenuated”.

**Q.** And the “fall in lung tissue glutamine” value ([4]; 24 hours post-CLP)?
**A.** Its value is “significantly attenuated”.

**Q.** And the lung lactate accumulation ([4]; 24 hours post-CLP, p<0.06)?
**A.** Its lung lactate accumulation is “trend towards a decrease”.

**Q.** What about the “five day mortality rate post-CLP” value ([4]; GLN 0.75 g/Kg one hour post surgery) of the same compound?
**A.** Its value is 78%.

**Q.** What about the “NAD+ content in lung and heart tissue following CLP” value ([4]; GLN 0.75 g/Kg one hour post surgery, 24 hours post-CLP) of the same compound?
**A.** Its value is “significant improvement”.

**Q.** What about the ICU days ([5]; all diagnoses, n = 15) of the same compound?
**A.** Its ICU days is 15.73 ± 16.18 days.

**Q.** And the “Length of stay” value ([5]; all diagnoses, n = 15)?
**A.** Its value is 29.73 ± 14.46 days.

**Q.** And the “Maximum Total Bilirubin (units??)” value ([5]; all diagnoses, n = 15)?
**A.** The value was 1.23 ± 0.67.

**Q.** And the “Maximum Total Creatinine (units??)” value ([5]; all diagnoses, n = 15)?
**A.** The value was 1.26 ± 0.89.

**Q.** What about the “Number of bacterial infections” value ([5]; all diagnoses, n = 15) of the same compound?
**A.** Its value is 0.20 ± 0.41.

**Q.** And the Number of infections ([5]; all diagnoses, n = 15)?
**A.** Its Number of infections is 1.87 ± 2.59.

**Q.** What about the “One or more bacterial infections (%)” value ([5]; all diagnoses, n = 15) of the same compound?
**A.** Its value is 20.0%.

**Q.** And the “One or more infections (%)” value ([5]; all diagnoses, n = 15)?
**A.** The value was 60.0%.

**Q.** And the Ventilator days ([5]; all diagnoses, n = 15)?
**A.** The Ventilator days was 12.07 ± 15.25 days.

**Q.** What about the ICU days [5, 6] of the same compound?
**A.** Its ICU days is 16.71 ± 7.65 days.

**Q.** What about the “Length of stay” value [5, 6] of the same compound?
**A.** Its value is 25.29 ± 6.18 days.

**Q.** And the “Maximum Total Bilirubin (units??)” value [5, 6]?
**A.** Its value is 1.70 ± 0.70.

**Q.** What about the “Maximum Total Creatinine (units??)” value [5, 6] of the same compound?
**A.** The value was 1.80 ± 1.07.

**Q.** What about the “Number of bacterial infections” value [5, 6] of the same compound?
**A.** The value was 0.0 ± 0.0.

**Q.** What about the Number of infections [5, 6] of the same compound?
**A.** Its Number of infections is 1.43 ± 1.40.

**Q.** What about the “One or more infections (%)” value [5, 6] of the same compound?
**A.** Its value is 57.1%.

**Q.** What about the “One ore more bacterial infection (%)” value [5, 6] of the same compound?
**A.** The value was 0%.

**Q.** What about the Ventilator days [5, 6] of the same compound?
**A.** The Ventilator days was 12.86 ± 9.03 days.
